Experimental data published in ChEMBL document CHEMBL3351846, “Synthesis and SAR studies of bis-chromenone derivatives for anti-proliferative activity against human cancer cells” (Bioorg Med Chem Lett, 2014).
Counter-ions that a name gives are not always drawn.

Tests used:
Type in all cases: functional, cell-based
ACHN = assay: Anti-proliferative activity against human ACHN cells by XTT assay
[1] = Anti-proliferative activity against human HCT15 cells by XTT assay; settings: HCT-15
MDA-MB-231 = assay: Anti-proliferative activity against human MDA-MB-231 cells by XTT assay
NCI-H23 = assay: Anti-proliferative activity against human NCI-H23 cells by XTT assay
[2] = Anti-proliferative activity against human NUGC3 cells by XTT assay; settings: NUGC-3
[3] = Anti-proliferative activity against human PC3 cells by XTT assay; settings: PC-3

Row | Compound | IC50 (ACHN) [µM] | IC50 [1] [µM] | IC50 (MDA-MB-231) [µM] | IC50 (NCI-H23) [µM] | IC50 [2] [µM] | IC50 [3] [µM]
1 | O=c1c(Cc2coc3cccc(OCC4CCCCC4)c3c2=O)coc2cc(O)ccc12 | 2.1 | 2.11 | 3.22 | 2.15 | 3.22 | 4.25
2 | COc1cccc2occ(Cc3coc4ccccc4c3=O)c(=O)c12 | 0.34 | 3.43 | > 10 | 1.93 | 3.19 | 3.49
3 | O=C1c2c(OCC3CCCCC3)cccc2OCC1Cc1coc2ccccc2c1=O (stereo not drawn) | 8.2 | 8.36 | 9.11 | 9.49 | 8.42 | 9.38
4 | O=c1c(Cc2coc3cccc(OCC4CCCCC4)c3c2=O)coc2ccccc12 | 4.23 | 4.24 | 4.11 | 4.13 | 3.53 | 4.51
5 | O=c1c(Cc2coc3cccc(OCc4ccccc4)c3c2=O)coc2ccccc12 | 3.99 | > 10 | > 10 | > 10 | 7.22 | 4.83
6 | CC(C)COc1cccc2occ(Cc3coc4ccccc4c3=O)c(=O)c12 | 1.46 | > 10 | > 10 | > 10 | > 10 | 1.72
7 | O=c1c(Cc2coc3cccc(O)c3c2=O)coc2ccccc12 | 0.74 | > 10 | > 10 | 7.55 | 3.27 | 5.95
8 | O=c1c(CCc2coc3ccccc3c2=O)coc2ccccc12 | > 10 | > 10 | > 10 | > 10 | > 10 | > 10
9 | O=c1c(/C=C/c2coc3ccccc3c2=O)coc2ccccc12 | > 10 | > 10 | > 10 | > 10 | > 10 | > 10
10 | O=c1c(Cc2coc3cccc(OCC4CCCCC4)c3c2=O)coc2cc(Cl)ccc12 | > 10 | > 10 | > 10 | > 10 | > 10 | > 10
11 | COc1ccc2c(=O)c(Cc3coc4cccc(OCC5CCCCC5)c4c3=O)coc2c1 | 1.35 | 1.45 | 1.2 | 1.32 | 1.44 | 1.12
12 | CC(C)CCOc1cccc2occ(Cc3coc4ccccc4c3=O)c(=O)c12 | 3.96 | > 10 | > 10 | > 10 | > 10 | > 10
13 | COc1cccc2c1C(=O)c1c(O)c3c(c(O)c1C2=O)C[C@@](O)(C(=O)CO)C[C@@H]3O[C@H]1C[C@H](N)[C@H](O)[C@H](C)O1 [DOXORUBICIN HYDROCHLORIDE] | – | 0.43 | 0.6 | 0.49 | 0.38 | –
14 | Cc1ccc2c(=O)c(Cc3coc4cccc(OCC5CCCCC5)c4c3=O)coc2c1 | 2.25 | 2.22 | 3.32 | 3.22 | 2.15 | 2.44
15 | O=c1c(Cc2coc3ccccc3c2=O)coc2ccccc12 | 0.51 | > 10 | > 10 | 1.4 | 7.77 | 7.4
